Five molecules from US11690841B2, “Glycolysis-activating agents for treatment or prevention of disease” (Queen Mary University of London, priority 2017, dated 2023) can be followed below.

Experiment [1] has as its system Tregs. The experiment can be described thus: Treg trans-endothelial migration and chemotaxis transwell assays. In kind it is cell-based, mouse. The note with it: Tregs pre-treated with drug for 4 hours; through IFN-γ-treated EC monolayers or in response to CCL22 / CXCL10. The procedure: FIG. 1. Glycolysis fuels Treg migration. Ex vivo expanded Tregs pre-treated with the indicated drugs or vehicle for 4 hours were left to migrate through 3 μm-pore transwells layered with IFN-γ-treated syngeneic EC monolayers (A-B) or in response chemokine CCL22 through bare filter 5 μm-pore transwells (C-D). Results are expressed as percentage of migrated cells after 24 hours (A-B, n=4, N=2) or at the indicated time-points (C, n=3)±SD. The fold increase in migration was calculated by dividing experimental migration by spontaneous migration measured at 6 hours in two experiments of identical design performed in triplicates±SD.
FIG. 2. Activated Treg phenotype and function and effect of exposure to metabolism-modifying drugs. Tregs were expanded as previously described (Fu et al., 2014). A-B Tregs were treated with the indicated metabolism-targeting drugs for 4-6 hours and extensively washed. Migration of drug-exposed Tregs in response to CXCL10 (300 ng/ml) was assessed by a transwell-based assay. Results are expressed as the mean percentage of migrated cells at the indicated time points±SD. Data obtained at 6 hours from three independent experiments of identical design and normalized by spontaneous migration±SD are shown in panel B. *P<0.05.
FIG. 5. Tregs were treated with the indicated metabolism-targeting drugs for 4-6 hours, extensively washed and cultured overnight in medium alone. Migration of drug-exposed Tregs in response to CCL22 (300 ng/ml, A-B) CXCL10 (300 ng/ml, C-D) was assessed by a 6 hr chemokinesis transwell assay ([…]). Results are expressed as the mean percentage of migrated cells in a typical experiment performed in triplicate±SD (A, C). […]
Lymphocyte trans-endothelial migration and chemotaxis assays. […] The number of migrated T cells was determined by a hemocytometer counting of the cells present in the well media at different time points over a 24-h period. […] The number of migrated cells was determined by a hemocytometer.

Experiment [2] has as its system Tregs. The experiment can be described thus: T cell recruitment in the peritoneum (labelled drug-treated Tregs injected into IFN-γ-treated syngeneic recipients). It counts as in vivo, mice. The note with it: for Treg migration / trafficking in vivo: drug-treated PKH26-labelled Tregs injected i.v. into recipients given IFN-γ i.p. 48 hours earlier, harvested after 24 hours. As for the experimental part: FIG. 3. Drug- or vehicle-treated Tregs labeled with the fluorescent intravital dye PKH26 were injected i.v. into syngeneic recipients treated with IFN-γ i.p. 48 hours earlier. Cells were harvested from the indicated tissues after 24 hours and analyzed by flow cytometry. Representative dot plots from 3 animals are shown in panels A and C. The mean absolute number of labeled cells recovered in 4 animals±SD is shown in panels B and D. (N=1)
(§1) FIG. 20. A: AZD1656 (GCK activator, 1 μM) and vehicle-treated Tregs (2 hours in insulin-free medium) were labeled with different intravital fluorescent dyes, and co-injected into syngeneic recipients that had received IFN-γ i.p. 48 hours earlier. Cells were recovered from the peritoneum or spleen after 24 hours and analyzed by flow cytometry. Representative dot plots are shown. The bar graphs indicate mean absolute number of labeled cells retrieved±SD (n=4 N=2). B-C: expression of PCNA by Tregs stimulated with allogeneic DCs following treatment with either AZD1656 (B) or Clotrimazole (CLT, 1 μM, 2 hours, C) or vehicle alone was measured by flow cytometry. NS, non-stimulated control Tregs. Representative histograms are shown. (n=3, N=3).
FIG. 21. A: ECAR of Treg cells activated with recombinant ICAM-1 or Fc control. CLT or vehicle, as well as other glycolysis-affecting drugs were added as indicated. B: CLT- or vehicle-treated Tregs underwent CD28 or isotype-matched antibody-stimulation, labelled with different intravital fluorescent dyes and injected i.v. in syngeneic recipients that had received IFN-γ i.p. 48 hours earlier. Cells were recovered from the peritoneum (P) or spleen (S) after 24 hours and analyzed by flow cytometry. Representative dot plots are shown. The column graphs indicate mean absolute number of labeled cells retrieved±SD (n=3 N=2). * p<0.05 ***p<0.005; ****p<0.001.
T cell recruitment in the peritoneum. To observe in vivo recruitment of T cells we used the previously described model of T cell recruitment (Mirenda et al., 2007). Either PKH26 or CFSE or DDAO-SE-labelled T cells (10^7) were injected intravenously (i.v.) into mice that hd received IFN-γ (600U) via intraperitoneal injection (i.p.) 48 to 72 hours earlier. Labeled T cells recovered via peritoneal lavage were analyzed 16 hours later using flow cytometry. In addition, localization of Tregs to the spleen, where entry occurs in a passive manner (Fu et al., 2016), was analyzed to ensure that similar numbers/proportion of labeled cells were injected or co-injected in all recipients (internal control).

Experiment [3] has as its system Tregs. The experiment can be described thus: PCNA expression by Tregs stimulated with allogeneic DCs (flow cytometry). It counts as cell-based, mouse. The note with it: 1 μM, 2 hours. As for the experimental part: as §1
Intracellular staining. For intracellular Foxp3 staining, eBioscience Anti-Mouse/Rat Foxp3 Staining Set APC (clone FJK-165, Thermo Fisher Scientific Cat #17-5773-82) kit was used. Cells were resuspended (10^7/ml) and stained with surface antigens as mentioned above and then fixed/permeabilized for 30 minutes at 4° C. using Fixation/Permeabilization working solution made from mixing 1 part of the fixation/permebilization concentrate (eBioscience, Cat #00-5123) to 3 parts of the fixation/permebilization diluent (eBioscience, Cat #00-5223). […]

Experiment [4] has as its system B6Kd skin allograft. As to the kind of experiment: Survival of B6Kd-derived skin grafts transplanted in C57BL/6 recipients. In kind it is in vivo, C57BL/6 mice. Conditions: 10 mg/kg twice daily (20 mg/kg daily) for 2 weeks after transplantation.
Description: C57B16 mice received a B6Kd skin graft or syngeneic skin as a control. […] To establish the selectivity of GCK usage by Tregs to sustain their motility, we compared the effect of pharmacological activation of GCK on the survival of B6Kd-derived skin grafts transplanted in C57BL/6 recipients. […] This schedule was designed in order to promote migration of endogenous Tregs during the early stages of the alloresponse. Control groups received saline solution with vehicle alone.
The subject of experiment [5] is CD3/CD28-stimulated Tconv cells. As to the kind of experiment: ECAR and OCR fluxometry (Seahorse) of anti-CD3 plus anti-CD28 stimulated CD4+ T cells. In kind it is cell-based, mouse.
Protocol: Real time analysis of the ECAR and OCR of CD4+ T cells stimulated for 24 hours with anti-CD3 plus anti-CD28 antibodies was performed using fluxometry. Wells were injected first with CLT or Vehicle. A second injection followed at the time point indicated (dashed line) introducing D-glucose into the wells. Subsequently, modulators of glycolysis (A) or cellular respiration (B) were sequentially injected at the indicated time points. […] OCR=Oxygen Consumption Rate: indirect measure of mitochondrial respiration and fatty acid oxidation (FAO). Measurement of ECAR and OCR. Real time bioenergetics analysis of extracellular acidification rates (ECAR) and oxygen consumption rates (OCR) of T cells subjected to antibody stimulation was performed using the XF analyzer (Seahorse biosciences). T cells were cultured in serum free, unbuffered XF assay medium (Seahorse biosciences, Cat #102365-100) for 1 hour. The cells were then seeded (6×10^5/well) into the seahorse XF24 cell plates for analysis. Perturbation profiling of the use of metabolic pathways by T cells was achieved by the addition of oligomycin (1 μM), FCCP (1 μM), Antimycin A (1 μM), rotenone (1 μM), D-glucose (10 mM), 2-Deoxy-D-glucose (2DG, 50 mM; all from Seahorse biosciences, Cat #103020-100 and 103015-100). […] Metabolic parameters were calculated. […]
Experiment [6] relates to Tregs. As to the kind of experiment: ECAR of Treg cells activated with recombinant ICAM-1. In kind it is cell-based, mouse. The note with it: Tregs activated with recombinant ICAM-1.
Protocol: A: ECAR of Treg cells activated with recombinant ICAM-1 or Fc control. CLT or vehicle, as well as other glycolysis-affecting drugs were added as indicated. […] Measurement of ECAR and OCR. Real time bioenergetics analysis of extracellular acidification rates (ECAR) and oxygen consumption rates (OCR) of T cells subjected to antibody stimulation was performed using the XF analyzer (Seahorse biosciences). T cells were cultured in serum free, unbuffered XF assay medium (Seahorse biosciences, Cat #102365-100) for 1 hour. The cells were then seeded (6×10^5/well) into the seahorse XF24 cell plates for analysis. Perturbation profiling of the use of metabolic pathways by T cells was achieved by the addition of oligomycin (1 μM), FCCP (1 μM), Antimycin A (1 μM), rotenone (1 μM), D-glucose (10 mM), 2-Deoxy-D-glucose (2DG, 50 mM; all from Seahorse biosciences, Cat #103020-100 and 103015-100). Experiments with the Seahorse system were done with the following assay conditions: 2 min mixture; 2 minutes wait; and 4-5 min measurement. Metabolic parameters were calculated. Experiments were done in at least triplicate wells.

Consider `O=CC[C@@H](O)[C@H](O)[C@H](O)CO` [2-DG, 2-deoxyglucose], for which, in experiment [1], the “Treg migration / motility in vitro” value is “migrated inefficiently”. Moreover, the “Treg migration / trafficking in vivo” value in experiment [2] is recorded as “migrated inefficiently”.

Take `COC[C@H](C)Oc1cc(Oc2cnc(C(=O)N3CCC3)cn2)cc(C(=O)Nc2cnc(C)cn2)c1` [AZD1656, 3-[5-(azetidine-1-carbonyl)pyrazin-2-yl]oxy-5-[(2S)-1-methoxypropan-2-yl]oxy-N-(5-methylpyrazin-2-yl)benzamide]: the “Treg division (PCNA expression / upregulation)” value in experiment [3] is “did not affect”. Moreover, in experiment [4], the Skin graft rejection result is “significantly delays”. In addition, in experiment [2] (Tregs treated with 1 μM for 2 hours in insulin-free medium, co-injected with vehicle-treated Tregs, peritoneum after 24 hours), the “Treg migration to the inflamed tissue” value is “significantly enhanced”.

As to `Clc1ccccc1C(c1ccccc1)(c1ccccc1)n1ccnc1` [CLT, Clotrimazole], the “Treg division (PCNA expression / upregulation)” value in experiment [3] was “effective at inhibiting”. Further, the “Treg migration to inflamed peritoneum in vivo” value in experiment [2] (drug-treated Tregs with CD28 or isotype antibody stimulation, injected i.v., recovered after 24 hours) was “did not affect”. In addition, in experiment [5], the “Glycolytic flux (ECAR)” value is listed as “inhibits” and the “Respiration (OCR)” value is given as “inhibits”. Also, in experiment [6], the “rICAM-1-mediated induction of glycolysis (ECAR)” value is “did not affect”.

As to `CCOC(=O)[C@@]1(CCCCCCOc2ccc(Cl)cc2)CO1` [Etomoxir], the “Treg migration / motility in vitro” value in experiment [1] is “Treg migration does not require fatty acid oxidation”.

For `CN(C)C(=N)N=C(N)N` [metformin], in experiment [1], the “Treg migration / motility in vitro” value is given as “increased Treg motility”. Also, the “Treg migration / trafficking in vivo” value in experiment [2] is listed as “increased”.
